# Assays:
# BcCE7 = molecular target: T1, BcCE7 (Bacteroides cellulosilyticus, UniProt E2NDM1); assay: transacetylation, MALDI-ToF MS; assay type: biochemical; conditions: acyl acceptor with vinyl acetate donor, […] enzyme, […] sodium phosphate pH […] °C
# T1 construct: gene BACCELL_02381; N-terminal signal peptide removed, His tag (removal not mentioned), pET28a(+), synthetic gene, E. coli BL21 STAR
# T1 sequence (E2NDM1 7-414 limits assumed): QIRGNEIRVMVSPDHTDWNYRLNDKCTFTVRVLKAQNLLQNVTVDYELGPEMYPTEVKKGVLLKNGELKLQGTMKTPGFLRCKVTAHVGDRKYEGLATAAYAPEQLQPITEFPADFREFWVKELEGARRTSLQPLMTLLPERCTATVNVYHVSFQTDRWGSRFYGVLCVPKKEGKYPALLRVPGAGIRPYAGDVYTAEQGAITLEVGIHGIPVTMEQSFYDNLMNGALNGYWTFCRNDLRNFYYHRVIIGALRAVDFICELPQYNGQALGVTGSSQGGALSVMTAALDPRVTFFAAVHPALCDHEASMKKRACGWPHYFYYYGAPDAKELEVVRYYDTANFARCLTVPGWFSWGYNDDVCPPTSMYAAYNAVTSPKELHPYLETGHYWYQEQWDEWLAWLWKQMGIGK
# BcCE25 = molecular target: T2, BcCE25 (Bacteroides cellulosilyticus, UniProt E2NCW7); assay: transacetylation, MALDI-ToF MS and NMR; assay type: biochemical; conditions: acyl acceptor with vinyl acetate donor, 200 nM enzyme, 10 mM sodium phosphate pH 5.9, 25 °C
# T2 construct: gene BACCELL_02125; N-terminal signal peptide removed, His tag (removal not mentioned), pET30a(+), synthetic gene, E. coli BL21 STAR
# T2 sequence (E2NCW7 20-263): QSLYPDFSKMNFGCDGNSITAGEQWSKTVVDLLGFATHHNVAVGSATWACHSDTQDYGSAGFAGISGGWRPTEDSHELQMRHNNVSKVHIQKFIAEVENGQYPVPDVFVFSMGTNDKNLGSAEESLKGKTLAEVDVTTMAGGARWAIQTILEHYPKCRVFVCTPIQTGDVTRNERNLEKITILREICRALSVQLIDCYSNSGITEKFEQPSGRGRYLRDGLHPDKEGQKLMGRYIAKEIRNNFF
smiles,measurement,setting,value
OC[C@H]1O[C@@H](O[C@H]2[C@H](O)[C@H](O)[C@H](O[C@H]3[C@H](O)[C@H](O)[C@H](O[C@H]4[C@H](O)[C@H](O)C(O)O[C@@H]4CO)O[C@@H]3CO)O[C@@H]2CO)[C@@H](O)[C@@H](O)[C@@H]1O (some centres unmarked) [mannotetraose],"transacetylation, MALDI-ToF MS",BcCE7,"On mannotetraose, BcCE7 transferred mainly one acetyl group"
same,"transacetylation, MALDI-ToF MS and NMR",BcCE25,BcCE25 transferred up to three acetylations
